Test results reported in PubChem BioAssay (NCI).
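In this assay, cells in 96-well plates receive the compound at five concentrations for 48 hours. Endpoints are linearly interpolated between the surrounding concentrations. TGI: concentration producing complete growth inhibition.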 Where a SMILES comes first, the peptide text is derived from it. The star is where a group is joined. CH2Cl = ClC*

Legend:
Assay in all cases: NCI anticancer screen, dose series, 48 h
[1] = test system: HL-60(TB) leukemia
[2] = test system: LOX IMVI melanoma
[3] = test system: SK-MEL-5 melanoma
[4] = test system: MOLT-4 leukemia
[5] = test system: CCRF-CEM leukemia
[6] = test system: KM12 colon
[7] = test system: COLO 205 colon
[8] = test system: T-47D breast
[9] = test system: NCI-H226 lung
[10] = test system: SNB-75 CNS
[11] = test system: RXF 393 renal
[12] = test system: RPMI-8226 leukemia
[13] = test system: SN12C renal
[14] = test system: PC-3 prostate
[15] = test system: NCI-H23 lung
[16] = test system: MALME-3M melanoma
[17] = test system: MDA-MB-435
[18] = test system: OVCAR-3 ovarian
[19] = test system: K-562 leukemia
[20] = test system: ACHN renal
[21] = test system: BT-549 breast
[22] = test system: HOP-92 NSCLC
[23] = test system: HS 578T breast
[24] = test system: SR leukemia
[25] = test system: HCT-116 colon
[26] = test system: DU-145 prostate
[27] = test system: SK-MEL-2 melanoma
[28] = test system: HCC-2998 colon
[29] = test system: UO-31 renal
[30] = test system: A549 NSCLC
[31] = test system: UACC-257 melanoma
[32] = test system: NCI/ADR-RES ovarian
[33] = test system: HOP-62 NSCLC
[34] = test system: A498 renal
[35] = test system: SW-620 colon
[36] = test system: SF-295 CNS
[37] = test system: OVCAR-4 ovarian
[38] = test system: NCI-H522 lung
[39] = test system: M14 melanoma
[40] = test system: SF-268 CNS
[41] = test system: IGROV1 ovarian
[42] = test system: OVCAR-8 ovarian
[43] = test system: MDA-MB-231 breast
[44] = test system: SF-539 CNS
[45] = test system: HCT-15 colon
[46] = test system: MDA-N
[47] = test system: CAKI-1 renal
[48] = test system: U251 CNS
[49] = test system: UACC-62 melanoma
[50] = test system: NCI-H460 lung
[51] = test system: SK-OV-3 ovarian
[52] = test system: TK-10 renal
[53] = test system: MCF7 breast
[54] = test system: SNB-19 CNS
[55] = test system: OVCAR-5 ovarian
[56] = test system: SK-MEL-28 melanoma
[57] = test system: 786-0 renal
[58] = test system: EKVX NSCLC
[59] = test system: HT29 colon

CC(=O)NC(CC(C)C)C(=O)NC(Cc1ccccc1)C(=O)CCl (stereo not drawn) (Ac-Leu-Phe-CH2Cl; configuration not given here)
TGI [1]: > 21.3 µM | TGI [2]: 10.6 µM | TGI [3]: 22.5 µM | TGI [4]: 4.53 µM | TGI [5]: 3.94 µM | TGI [6]: 36 µM | TGI [7]: > 51.1 µM | TGI [8]: > 59.7 µM | TGI [9]: 39.1 µM | TGI [10]: 28.1 µM | TGI [11]: 5.69 µM | TGI [12]: > 25 µM | TGI [13]: 27 µM | TGI [14]: 30.7 µM | TGI [15]: 30.3 µM | TGI [16]: 18.4 µM | TGI [17]: 28 µM | TGI [18]: 28.3 µM | TGI [19]: 10.7 µM | TGI [20]: 23.9 µM | TGI [21]: 28.4 µM | TGI [22]: 16.5 µM | TGI [23]: 36.4 µM | TGI [24]: > 21.8 µM | TGI [25]: 19.2 µM | TGI [26]: 17 µM | TGI [27]: 27.4 µM | TGI [28]: 30.4 µM | TGI [29]: 28.4 µM | TGI [30]: 41.6 µM | TGI [31]: 22.4 µM | TGI [32]: 50.1 µM | TGI [33]: 33.2 µM | TGI [34]: 33.8 µM | TGI [35]: 9.17 µM | TGI [36]: 33.9 µM | TGI [37]: 43.6 µM | TGI [38]: 7.43 µM | TGI [39]: 21.1 µM | TGI [40]: 50.4 µM | TGI [41]: 31.6 µM | TGI [42]: 19.6 µM | TGI [43]: 39.3 µM | TGI [44]: 34.5 µM | TGI [45]: 13.2 µM | TGI [46]: 32.9 µM | TGI [47]: 32.1 µM | TGI [48]: 30.5 µM | TGI [49]: 19 µM | TGI [50]: 43.3 µM | TGI [51]: 32.3 µM | TGI [52]: 24.1 µM | TGI [53]: 22.8 µM | TGI [54]: 37.7 µM | TGI [55]: 32.4 µM | TGI [56]: 23.2 µM | TGI [57]: 17 µM | TGI [58]: 38.4 µM | TGI [59]: 34.6 µM

OCCCNCC(O)c1ccc(OCc2ccccc2)c(OCc2ccccc2)c1 (stereo not drawn)
TGI [1]: 21.4 µM | TGI [2]: 13.7 µM | TGI [3]: 13.5 µM | TGI [4]: 19.2 µM | TGI [5]: 17.5 µM | TGI [6]: 26 µM | TGI [7]: 10.2 µM | TGI [8]: 34.4 µM | TGI [9]: 29.7 µM | TGI [10]: 14.1 µM | TGI [11]: 42.7 µM | TGI [12]: 19.9 µM | TGI [13]: 29.7 µM | TGI [14]: 25.4 µM | TGI [15]: 33.3 µM | TGI [16]: 29.7 µM | TGI [17]: 15.2 µM | TGI [18]: 30.4 µM | TGI [19]: 33.5 µM | TGI [20]: 23.8 µM | TGI [21]: 31.9 µM | TGI [22]: 24.1 µM | TGI [23]: 35.6 µM | TGI [24]: 28 µM | TGI [25]: 18.3 µM | TGI [26]: 30.8 µM | TGI [27]: 15.1 µM | TGI [28]: 10 µM | TGI [29]: 28.8 µM | TGI [30]: 26.3 µM | TGI [31]: 25.6 µM | TGI [32]: 37.2 µM | TGI [33]: 28.8 µM | TGI [34]: 25.8 µM | TGI [35]: 15.8 µM | TGI [36]: 20.8 µM | TGI [37]: 18.3 µM | TGI [38]: 30 µM | TGI [39]: 31.5 µM | TGI [40]: 30.9 µM | TGI [41]: 23.4 µM | TGI [42]: 26.6 µM | TGI [43]: 28.7 µM | TGI [44]: 27.2 µM | TGI [45]: 27.5 µM | TGI [46]: 21.6 µM | TGI [47]: 32.5 µM | TGI [48]: 23.1 µM | TGI [49]: 42.8 µM | TGI [50]: 15.8 µM | TGI [51]: 24.4 µM | TGI [52]: 15.8 µM | TGI [53]: 16 µM | TGI [54]: 38.5 µM | TGI [55]: 29.5 µM | TGI [56]: 20.4 µM | TGI [57]: 14.3 µM | TGI [58]: 30.4 µM | TGI [59]: 16 µM
